Test system: GNS166 cells
Experiment: Microarray whole-transcriptome gene expression analysis
Type: cell-based, human
Conditions: DMSO vs 5 µM SAHA, upregulated genes
Procedure: Whole-transcriptome analysis was performed from 300 ng of RNA using HuGene-2_0-st-v1 expression array (Affymetrix), which covers 48,226 transcripts. Raw data were first checked for quality purposes through the Affymetrix® Expression Console™ Software v1.4.1 and TAC software v4.0. Then, data were normalized using the Robust Multi-array Average (RMA) and analyzed by Limma tool. Probesets with FDR-corrected p-values smaller than 0.05 were selected. Functional enrichment on Gene Ontology (GO) biological processes was performed on a smaller subset of the differentially expressed genes (corrected p-value < 0.001) by means of Broad Institute GSEA. […] The data that support this study have been deposited in NCBI´s Gene Expression Omnibus and are accessible through GEO series accession number GSE143887.

`O=C(CCCCCCC(=O)Nc1ccccc1)NO` [SAHA, Suberoylanilide hydroxamic acid] was tested, and the “logFC NMUR2” value (transcript TC0500012531.hg.1) was 2.3, the “logFC PIM1” value (transcript TC0600007862.hg.1) was 1.267 and the “logFC BCKDHB” value (transcript TC0600008632.hg.1) was 0.8913. The “logFC SLC16A10” value (transcript TC0600009143.hg.1) was 1.06, the “logFC TBPL1” value (transcript TC0600009508.hg.1) was 0.8103 and the “logFC STK38” value (transcript TC0600011661.hg.1) was 0.8577. The “logFC SOGA3” value (transcript TC0600013119.hg.1) was 1.659, the “logFC STX7” value (transcript TC0600013193.hg.1) was 1.104 and the “logFC CYB5R4” value (transcript TC0600014148.hg.1) was 0.9356. For the same molecule, the “logFC ARL4A” value (transcript TC0700006737.hg.1) was 1.551, the “logFC AHR” value (transcript TC0700006795.hg.1) was 1.0742 and the “logFC C7orf57” value (transcript TC0700007475.hg.1) was 1.163. The “logFC PRKAR2B” value (transcript TC0700008745.hg.1) was 1.383, the “logFC ANKRD7” value (transcript TC0700008898.hg.1) was 1.335 and the “logFC SND1” value (transcript TC0700009020.hg.1) was 0.9855. For the same molecule, the “logFC FAM71F1” value (transcript TC0700009060.hg.1) was 1.462, the “logFC DGKB” value (transcript TC0700010327.hg.1) was 0.979 and the “logFC TMEM60” value (transcript TC0700011601.hg.1) was 0.8857. For the same molecule, the “logFC FAM3C” value (transcript TC0700012427.hg.1) was 0.9259, the “logFC IQUB” value (transcript TC0700012456.hg.1) was 1.539 and the “logFC RASA4” value (transcript TC0700013603.hg.1) was 1.334. The “logFC KIAA1456” value (transcript TC0800006802.hg.1) was 1.838, the “logFC PDGFRL” value (transcript TC0800006873.hg.1) was 1.146 and the “logFC PLAT” value (transcript TC0800010275.hg.1) was 1.063. For the same molecule, the “logFC PAG1” value (transcript TC0800010926.hg.1) was 1.472, the “logFC EXT1” value (transcript TC0800011579.hg.1) was 1.229 and the “logFC SLC26A7” value (transcript TC0800012325.hg.1) was 0.8985. For the same molecule, the “logFC PSAT1” value (transcript TC0900007667.hg.1) was 0.8807, the “logFC MLLT3” value (transcript TC0900009679.hg.1) was 1.79 and the “logFC APBA1” value (transcript TC0900010350.hg.1) was 1.1769. The “logFC NR6A1” value (transcript TC0900011501.hg.1) was 1.227, the “logFC ALDH1A1” value (transcript TC0900012245.hg.1) was 1.351 and the “logFC CDC14B” value (transcript TC0900012256.hg.1) was 1.18. For the same molecule, the “logFC BAMBI” value (transcript TC1000007132.hg.1) was 1.194, the “logFC DNAJC1” value (transcript TC1000010006.hg.1) was 1.349 and the “logFC ZNF215” value (transcript TC1100006749.hg.1) was 1.332. For the same molecule, the “logFC GRIA4” value (transcript TC1100008948.hg.1) was 1.769, the “logFC C11orf88” value (transcript TC1100009023.hg.1) was 1.468 and the “logFC SIK2” value (transcript TC1100009026.hg.1) was 0.9192. The “logFC NRGN” value (transcript TC1100009398.hg.1) was 0.9705, the “logFC FZD4” value (transcript TC1100011867.hg.1) was 1.1951 and the “logFC CCDC82” value (transcript TC1100012052.hg.1) was 0.8598. The “logFC IL18” value (transcript TC1100012318.hg.1) was 1.544, the “logFC CDON” value (transcript TC1100012722.hg.1) was 2.237 and the “logFC FAM89B” value (transcript TC1100013043.hg.1) was 0.8784. The “logFC IGF2” value (transcript TC1100013131.hg.1) was 1.158, the “logFC C12orf60” value (transcript TC1200006948.hg.1) was 1.183 and the “logFC ARNTL2” value (transcript TC1200007147.hg.1) was 1.2211. The “logFC GDF11” value (transcript TC1200007809.hg.1) was 1.519, the “logFC TMTC2” value (transcript TC1200008322.hg.1) was 1.0601 and the “logFC TMTC3” value (transcript TC1200008373.hg.1) was 1.159. The “logFC TXNRD1” value (transcript TC1200008675.hg.1) was 0.8282, the “logFC P2RX7” value (transcript TC1200009157.hg.1) was 1.148 and the “logFC RHEBL1” value (transcript TC1200010612.hg.1) was 1.826. The “logFC ATP2B1” value (transcript TC1200011474.hg.1) was 1.035, the “logFC LRRC63” value (transcript TC1300007085.hg.1) was 1.37 and the “logFC SLC46A3” value (transcript TC1300008468.hg.1) was 1.1281. For the same molecule, the “logFC UBL3” value (transcript TC1300008497.hg.1) was 0.9113, the “logFC LCP1” value (transcript TC1300008840.hg.1) was 1.339 and the “logFC KLF12” value (transcript TC1300009249.hg.1) was 1.022. The “logFC SLITRK1” value (transcript TC1300009376.hg.1) was 1.004, the “logFC FOXG1” value (transcript TC1400006791.hg.1) was 0.91 and the “logFC SOCS4” value (transcript TC1400007221.hg.1) was 0.9561. For the same molecule, the “logFC ARID4A” value (transcript TC1400007307.hg.1) was 0.9227, the “logFC SLC7A8” value (transcript TC1400008705.hg.1) was 1.877 and the “logFC GCH1” value (transcript TC1400009239.hg.1) was 1.069. The “logFC KLHL28” value (transcript TC1400010737.hg.1) was 1.205, the “logFC TMOD2” value (transcript TC1500007238.hg.1) was 1.505 and the “logFC LRRC49” value (transcript TC1500007735.hg.1) was 1.1742. For the same molecule, the “logFC DENND4A” value (transcript TC1500009804.hg.1) was 1.04, the “logFC UACA” value (transcript TC1500009921.hg.1) was 1.398 and the “logFC RGMA” value (transcript TC1500010501.hg.1) was 0.8186. For the same molecule, the “logFC YPEL3” value (transcript TC1600009952.hg.1) was 1.349, the “logFC ACSM3” value (transcript TC1600011362.hg.1) was 1.318 and the “logFC NLK” value (transcript TC1700007344.hg.1) was 1.006. For the same molecule, the “logFC NGFR” value (transcript TC1700008209.hg.1) was 1.322, the “logFC DYNLL2” value (transcript TC1700008418.hg.1) was 0.9396 and the “logFC MYO1D” value (transcript TC1700010358.hg.1) was 1.521. The “logFC MMD” value (transcript TC1700011181.hg.1) was 0.9396, the “logFC CBX4” value (transcript TC1700011953.hg.1) was 1.178 and the “logFC UNC13A” value (transcript TC1900009984.hg.1) was 2.076. For the same molecule, the “logFC KIAA1683” value (transcript TC1900010008.hg.1) was 1.003, the “logFC DIRAS1” value (transcript TC1900011842.hg.1) was 0.9114 and the “logFC TGM2” value (transcript TC2000009058.hg.1) was 1.058. The “logFC KCNQ2” value (transcript TC2000009809.hg.1) was 1.266, the “logFC SRXN1” value (transcript TC2000009960.hg.1) was 0.9857 and the “logFC SH3BGR” value (transcript TC2100007166.hg.1) was 0.8256. The “logFC ADAMTS1” value (transcript TC2100007821.hg.1) was 1.343 and the “logFC TIMP3” value (transcript TC2200007150.hg.1) was 0.905.

Source: paper PMC7265429, “Characterization of a new small-molecule inhibitor of HDAC6 in glioblastoma” (Cell Death & Disease, 2020)
